Experimental data taken from ChEMBL document CHEMBL2396647, “The synergic modeling for the binding of fluoroquinolone antibiotics to the hERG potassium channel” (Bioorg Med Chem Lett, 2013).

Key:
Assay type in all cases: cell-based
[1] = biological target: T1, Voltage-gated inwardly rectifying potassium channel KCNH2 (Homo sapiens, UniProt Q12809, F656A); assay: Binding affinity to human ERG F656A tetrameric mutant expressed in HEK293 cells assessed as inhibition of tail current measured upon repolarization to -120 mV by patch clamp method
[2] = biological target: T1, Voltage-gated inwardly rectifying potassium channel KCNH2; assay: Binding affinity to human ERG F656A tandem dimeric mutant expressed in HEK293 cells assessed as inhibition of tail current measured upon repolarization to -120 mV by patch clamp method
[3] = biological target: Voltage-gated inwardly rectifying potassium channel KCNH2 (Homo sapiens, UniProt Q12809, S624A); assay: Binding affinity to human ERG S624A tetrameric mutant expressed in HEK293 cells assessed as inhibition of tail current measured upon repolarization to -40 mV by patch clamp method
[4] = biological target: T2, Voltage-gated inwardly rectifying potassium channel KCNH2 (Homo sapiens, UniProt Q12809, Y652A); assay: Binding affinity to human ERG Y652A tetrameric mutant expressed in HEK293 cells assessed as inhibition of tail current measured upon repolarization to -40 mV by patch clamp method
[5] = biological target: T2, Voltage-gated inwardly rectifying potassium channel KCNH2; assay: Binding affinity to human ERG Y652A tandem dimeric mutant expressed in HEK293 cells assessed as inhibition of tail current measured upon repolarization to -40 mV by patch clamp method
[6] = biological target: Voltage-gated inwardly rectifying potassium channel KCNH2 (Homo sapiens, UniProt Q12809); assay: Binding affinity to wild type human ERG expressed in HEK293 cells assessed as inhibition of tail current measured upon repolarization to -40 mV by patch clamp method
Sequence of Voltage-gated inwardly rectifying potassium channel KCNH2 (Homo sapiens, UniProt Q12809) (Q12809 whole entry): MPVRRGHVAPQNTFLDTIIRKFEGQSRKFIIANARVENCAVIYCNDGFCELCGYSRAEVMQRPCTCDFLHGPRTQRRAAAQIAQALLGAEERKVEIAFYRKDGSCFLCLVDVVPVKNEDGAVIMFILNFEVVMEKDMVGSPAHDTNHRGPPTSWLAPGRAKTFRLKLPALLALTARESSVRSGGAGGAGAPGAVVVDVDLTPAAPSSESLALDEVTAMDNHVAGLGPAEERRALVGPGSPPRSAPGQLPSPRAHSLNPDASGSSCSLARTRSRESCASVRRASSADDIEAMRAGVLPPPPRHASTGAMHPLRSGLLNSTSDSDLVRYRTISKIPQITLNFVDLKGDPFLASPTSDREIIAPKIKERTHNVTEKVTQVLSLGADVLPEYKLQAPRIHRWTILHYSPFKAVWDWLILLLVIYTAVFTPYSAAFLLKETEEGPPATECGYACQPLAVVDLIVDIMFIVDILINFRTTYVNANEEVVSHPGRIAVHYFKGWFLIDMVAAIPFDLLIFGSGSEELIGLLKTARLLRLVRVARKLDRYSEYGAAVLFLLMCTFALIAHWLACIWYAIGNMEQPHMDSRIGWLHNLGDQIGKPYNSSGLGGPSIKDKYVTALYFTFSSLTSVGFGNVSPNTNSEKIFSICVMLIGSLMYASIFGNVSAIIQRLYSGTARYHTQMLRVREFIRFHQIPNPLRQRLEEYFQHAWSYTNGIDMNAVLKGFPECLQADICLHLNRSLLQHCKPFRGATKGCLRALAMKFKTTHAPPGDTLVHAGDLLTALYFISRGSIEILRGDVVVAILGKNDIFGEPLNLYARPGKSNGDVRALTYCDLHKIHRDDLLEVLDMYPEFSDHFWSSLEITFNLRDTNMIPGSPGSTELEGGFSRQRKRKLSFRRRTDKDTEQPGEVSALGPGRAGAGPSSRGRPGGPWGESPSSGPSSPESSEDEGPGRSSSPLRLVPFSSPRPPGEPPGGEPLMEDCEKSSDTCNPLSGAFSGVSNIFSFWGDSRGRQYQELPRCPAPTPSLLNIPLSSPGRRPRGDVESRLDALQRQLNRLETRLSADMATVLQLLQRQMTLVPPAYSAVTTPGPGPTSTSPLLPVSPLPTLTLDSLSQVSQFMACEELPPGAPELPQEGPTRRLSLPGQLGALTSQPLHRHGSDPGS

T1 sequence (Q12809 whole entry F656A): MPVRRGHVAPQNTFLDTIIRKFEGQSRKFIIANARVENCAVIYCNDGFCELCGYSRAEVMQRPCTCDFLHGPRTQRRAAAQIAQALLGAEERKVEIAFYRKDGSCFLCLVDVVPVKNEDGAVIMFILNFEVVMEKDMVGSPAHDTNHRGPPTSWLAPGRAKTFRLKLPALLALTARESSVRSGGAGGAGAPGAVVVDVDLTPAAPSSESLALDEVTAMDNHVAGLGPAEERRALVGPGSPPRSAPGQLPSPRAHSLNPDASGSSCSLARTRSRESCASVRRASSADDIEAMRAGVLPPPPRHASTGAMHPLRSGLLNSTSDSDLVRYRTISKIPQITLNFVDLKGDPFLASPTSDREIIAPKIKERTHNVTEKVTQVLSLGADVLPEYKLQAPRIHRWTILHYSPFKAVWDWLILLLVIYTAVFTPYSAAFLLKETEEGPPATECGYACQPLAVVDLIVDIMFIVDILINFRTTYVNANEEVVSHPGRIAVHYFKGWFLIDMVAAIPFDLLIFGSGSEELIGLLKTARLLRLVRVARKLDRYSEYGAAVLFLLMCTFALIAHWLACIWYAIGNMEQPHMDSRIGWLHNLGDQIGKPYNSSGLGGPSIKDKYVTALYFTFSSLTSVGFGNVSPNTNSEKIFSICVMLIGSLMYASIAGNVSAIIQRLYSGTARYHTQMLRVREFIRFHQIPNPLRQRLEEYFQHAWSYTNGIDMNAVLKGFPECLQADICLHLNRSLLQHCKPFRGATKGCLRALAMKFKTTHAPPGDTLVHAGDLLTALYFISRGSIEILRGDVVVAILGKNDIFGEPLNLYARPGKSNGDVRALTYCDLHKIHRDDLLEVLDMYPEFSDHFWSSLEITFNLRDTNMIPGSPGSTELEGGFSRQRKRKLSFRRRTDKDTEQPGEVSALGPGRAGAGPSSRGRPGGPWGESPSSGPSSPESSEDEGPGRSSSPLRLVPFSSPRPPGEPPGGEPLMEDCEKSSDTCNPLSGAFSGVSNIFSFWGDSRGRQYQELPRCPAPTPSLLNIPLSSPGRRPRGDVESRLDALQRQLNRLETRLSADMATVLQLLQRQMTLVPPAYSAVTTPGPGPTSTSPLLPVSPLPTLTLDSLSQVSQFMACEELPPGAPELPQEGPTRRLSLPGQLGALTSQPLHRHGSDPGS
T2 sequence (Q12809 whole entry Y652A): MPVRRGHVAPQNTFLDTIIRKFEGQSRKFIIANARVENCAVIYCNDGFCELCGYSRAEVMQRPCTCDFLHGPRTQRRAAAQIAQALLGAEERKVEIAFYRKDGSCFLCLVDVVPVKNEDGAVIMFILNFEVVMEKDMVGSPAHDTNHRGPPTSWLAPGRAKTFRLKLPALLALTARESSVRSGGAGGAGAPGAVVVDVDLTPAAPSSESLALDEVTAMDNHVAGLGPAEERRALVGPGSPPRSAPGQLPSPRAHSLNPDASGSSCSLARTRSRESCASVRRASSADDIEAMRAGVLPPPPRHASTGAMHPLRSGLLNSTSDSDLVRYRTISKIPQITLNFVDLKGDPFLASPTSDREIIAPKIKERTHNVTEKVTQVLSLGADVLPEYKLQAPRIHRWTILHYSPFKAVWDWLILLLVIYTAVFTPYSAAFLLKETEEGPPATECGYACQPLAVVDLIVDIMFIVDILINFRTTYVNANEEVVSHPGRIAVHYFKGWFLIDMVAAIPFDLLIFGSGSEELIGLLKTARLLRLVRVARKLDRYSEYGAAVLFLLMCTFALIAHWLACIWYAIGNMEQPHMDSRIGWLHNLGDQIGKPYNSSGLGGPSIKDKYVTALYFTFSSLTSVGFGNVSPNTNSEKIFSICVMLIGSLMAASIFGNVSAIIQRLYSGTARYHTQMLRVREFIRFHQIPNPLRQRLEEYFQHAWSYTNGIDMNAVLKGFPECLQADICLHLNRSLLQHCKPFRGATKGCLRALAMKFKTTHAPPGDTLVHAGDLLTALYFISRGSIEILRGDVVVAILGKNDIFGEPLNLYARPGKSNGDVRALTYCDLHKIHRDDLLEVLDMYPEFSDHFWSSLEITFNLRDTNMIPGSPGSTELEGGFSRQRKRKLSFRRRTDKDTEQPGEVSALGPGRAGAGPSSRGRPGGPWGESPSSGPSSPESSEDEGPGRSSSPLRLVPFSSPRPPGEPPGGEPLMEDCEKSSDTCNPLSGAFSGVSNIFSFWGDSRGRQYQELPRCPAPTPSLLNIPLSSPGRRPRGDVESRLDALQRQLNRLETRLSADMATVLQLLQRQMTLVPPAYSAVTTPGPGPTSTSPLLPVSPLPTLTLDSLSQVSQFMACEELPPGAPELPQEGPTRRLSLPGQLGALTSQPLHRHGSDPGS
Sequence of Voltage-gated inwardly rectifying potassium channel KCNH2 (Homo sapiens, UniProt Q12809, S624A) (Q12809 whole entry S624A): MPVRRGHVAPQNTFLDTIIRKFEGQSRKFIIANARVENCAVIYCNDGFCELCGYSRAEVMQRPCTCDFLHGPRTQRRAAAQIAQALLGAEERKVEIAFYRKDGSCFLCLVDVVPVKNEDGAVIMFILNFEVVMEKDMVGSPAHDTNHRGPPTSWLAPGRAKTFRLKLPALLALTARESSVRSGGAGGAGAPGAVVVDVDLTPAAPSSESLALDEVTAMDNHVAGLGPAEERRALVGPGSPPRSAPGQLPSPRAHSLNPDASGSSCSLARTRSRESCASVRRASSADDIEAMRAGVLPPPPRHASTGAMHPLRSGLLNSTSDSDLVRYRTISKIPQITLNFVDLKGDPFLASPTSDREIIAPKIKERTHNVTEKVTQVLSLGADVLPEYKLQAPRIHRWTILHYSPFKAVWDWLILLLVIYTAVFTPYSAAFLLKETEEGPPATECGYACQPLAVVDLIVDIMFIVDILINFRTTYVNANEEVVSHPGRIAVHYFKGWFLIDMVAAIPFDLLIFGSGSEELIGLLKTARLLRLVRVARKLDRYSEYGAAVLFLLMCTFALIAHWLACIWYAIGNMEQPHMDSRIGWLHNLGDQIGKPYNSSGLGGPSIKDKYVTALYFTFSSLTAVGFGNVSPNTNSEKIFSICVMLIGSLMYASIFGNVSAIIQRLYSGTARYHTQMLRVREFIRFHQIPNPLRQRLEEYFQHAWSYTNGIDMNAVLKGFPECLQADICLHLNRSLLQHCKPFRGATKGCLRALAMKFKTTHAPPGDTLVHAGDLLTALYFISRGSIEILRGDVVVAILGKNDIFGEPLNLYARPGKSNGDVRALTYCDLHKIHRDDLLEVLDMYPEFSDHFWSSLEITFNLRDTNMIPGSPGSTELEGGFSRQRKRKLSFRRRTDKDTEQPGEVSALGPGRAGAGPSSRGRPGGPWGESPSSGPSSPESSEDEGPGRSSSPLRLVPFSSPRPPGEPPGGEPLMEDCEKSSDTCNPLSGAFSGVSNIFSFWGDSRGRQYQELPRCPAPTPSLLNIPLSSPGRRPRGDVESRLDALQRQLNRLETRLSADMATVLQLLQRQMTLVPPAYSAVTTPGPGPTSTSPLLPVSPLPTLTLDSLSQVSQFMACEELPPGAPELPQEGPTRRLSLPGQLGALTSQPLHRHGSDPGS

Work on `C[C@@H]1CN(c2c(F)c(N)c3c(=O)c(C(=O)O)cn(C4CC4)c3c2F)C[C@H](C)N1` [SPARFLOXACIN] yielded an IC50 [1] of over 250 µM, an IC50 [2] of 33.6 µM and an IC50 [3] of 46.9 µM. It also gave an IC50 [4] of over 250 µM, an IC50 [5] of 128 µM and an IC50 [6] of 21.7 µM.
